#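 96-well plates; 48 h exposure; 5 concentrations. Endpoints by linear interpolation between flanking doses. Not reached: highest tested concentration assigned. GI50: concentration for 50% inhibition of growth. TGI denotes the concentration required for complete inhibition of growth.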
# Tests used:
# Test in all cases: NCI anticancer screen, dose series, 48 h
# RXF 393 renal = system: RXF 393 renal
# RPMI-8226 leukemia = system: RPMI-8226 leukemia
# COLO 205 colon = system: COLO 205 colon
# DU-145 prostate = system: DU-145 prostate
# CCRF-CEM leukemia = system: CCRF-CEM leukemia
# MDA-MB-231 breast = system: MDA-MB-231 breast
# PC-3 prostate = system: PC-3 prostate
# UO-31 renal = system: UO-31 renal
# LOX IMVI melanoma = system: LOX IMVI melanoma
# MDA-MB-435 = system: MDA-MB-435
# OVCAR-4 ovarian = system: OVCAR-4 ovarian
# OVCAR-8 ovarian = system: OVCAR-8 ovarian
# U251 CNS = system: U251 CNS
# OVCAR-3 ovarian = system: OVCAR-3 ovarian
# A549 NSCLC = system: A549 NSCLC
# NCI-H460 lung = system: NCI-H460 lung
# NCI-H23 lung = system: NCI-H23 lung
# 786-0 renal = system: 786-0 renal
# K-562 leukemia = system: K-562 leukemia
# SK-OV-3 ovarian = system: SK-OV-3 ovarian
# SK-MEL-2 melanoma = system: SK-MEL-2 melanoma
# HCT-116 colon = system: HCT-116 colon
# HS 578T breast = system: HS 578T breast
# A498 renal = system: A498 renal
# SF-539 CNS = system: SF-539 CNS
# CAKI-1 renal = system: CAKI-1 renal
# HCT-15 colon = system: HCT-15 colon
# HT29 colon = system: HT29 colon
# SNB-75 CNS = system: SNB-75 CNS
# MALME-3M melanoma = system: MALME-3M melanoma
# SNB-19 CNS = system: SNB-19 CNS
# NCI-H226 lung = system: NCI-H226 lung
# SW-620 colon = system: SW-620 colon
# ACHN renal = system: ACHN renal
# TK-10 renal = system: TK-10 renal
# SF-268 CNS = system: SF-268 CNS
# HOP-62 NSCLC = system: HOP-62 NSCLC
# HL-60(TB) leukemia = system: HL-60(TB) leukemia
# OVCAR-5 ovarian = system: OVCAR-5 ovarian
# NCI/ADR-RES ovarian = system: NCI/ADR-RES ovarian
# KM12 colon = system: KM12 colon
# SR leukemia = system: SR leukemia
# MOLT-4 leukemia = system: MOLT-4 leukemia
# EKVX NSCLC = system: EKVX NSCLC
# HOP-92 NSCLC = system: HOP-92 NSCLC
# SF-295 CNS = system: SF-295 CNS
# UACC-62 melanoma = system: UACC-62 melanoma
# M14 melanoma = system: M14 melanoma
# MCF7 breast = system: MCF7 breast
# HCC-2998 colon = system: HCC-2998 colon
# SK-MEL-5 melanoma = system: SK-MEL-5 melanoma
# T-47D breast = system: T-47D breast
# SN12C renal = system: SN12C renal
# NCI-H522 lung = system: NCI-H522 lung
# IGROV1 ovarian = system: IGROV1 ovarian
# SK-MEL-28 melanoma = system: SK-MEL-28 melanoma
# UACC-257 melanoma = system: UACC-257 melanoma
compound,measurement,setting,value
Cc1ccc(S(=O)(=O)NC(=O)Nc2ccc(C(=O)O)c(O)c2)cc1,TGI,RXF 393 renal,> 100 µM
same,TGI,RPMI-8226 leukemia,> 100 µM
same,TGI,COLO 205 colon,> 100 µM
same,TGI,DU-145 prostate,> 100 µM
same,TGI,CCRF-CEM leukemia,> 100 µM
same,TGI,MDA-MB-231 breast,> 100 µM
same,TGI,PC-3 prostate,> 100 µM
same,TGI,UO-31 renal,> 100 µM
same,TGI,LOX IMVI melanoma,> 100 µM
same,TGI,MDA-MB-435,> 100 µM
same,TGI,OVCAR-4 ovarian,> 100 µM
same,TGI,OVCAR-8 ovarian,> 100 µM
same,TGI,U251 CNS,> 100 µM
same,TGI,OVCAR-3 ovarian,> 100 µM
same,TGI,A549 NSCLC,> 100 µM
same,TGI,NCI-H460 lung,> 100 µM
same,TGI,NCI-H23 lung,> 100 µM
same,TGI,786-0 renal,> 100 µM
same,TGI,K-562 leukemia,> 100 µM
same,TGI,SK-OV-3 ovarian,> 100 µM
same,TGI,SK-MEL-2 melanoma,> 100 µM
same,TGI,HCT-116 colon,> 100 µM
same,TGI,HS 578T breast,> 100 µM
same,TGI,A498 renal,> 100 µM
same,TGI,SF-539 CNS,> 100 µM
same,TGI,CAKI-1 renal,> 100 µM
same,TGI,HCT-15 colon,> 100 µM
same,TGI,HT29 colon,> 100 µM
same,TGI,SNB-75 CNS,> 100 µM
same,TGI,MALME-3M melanoma,> 100 µM
same,TGI,SNB-19 CNS,> 100 µM
same,TGI,NCI-H226 lung,> 100 µM
same,TGI,SW-620 colon,> 100 µM
same,TGI,ACHN renal,> 100 µM
same,TGI,TK-10 renal,> 100 µM
same,TGI,SF-268 CNS,> 100 µM
same,TGI,HOP-62 NSCLC,> 100 µM
same,TGI,HL-60(TB) leukemia,> 100 µM
same,TGI,OVCAR-5 ovarian,> 100 µM
same,TGI,NCI/ADR-RES ovarian,> 100 µM
same,TGI,KM12 colon,> 100 µM
same,TGI,SR leukemia,> 100 µM
same,TGI,MOLT-4 leukemia,> 100 µM
same,TGI,EKVX NSCLC,> 100 µM
same,TGI,HOP-92 NSCLC,> 100 µM
same,TGI,SF-295 CNS,> 100 µM
same,TGI,UACC-62 melanoma,> 100 µM
same,TGI,M14 melanoma,> 100 µM
same,TGI,MCF7 breast,> 100 µM
same,TGI,HCC-2998 colon,> 100 µM
same,TGI,SK-MEL-5 melanoma,> 100 µM
Cc1cc(-c2no[n+]([O-])c2-c2cc(C)sc2S(C)(=O)=O)c(S(C)(=O)=O)s1,TGI,RPMI-8226 leukemia,> 100 µM
same,TGI,COLO 205 colon,> 100 µM
same,TGI,CCRF-CEM leukemia,> 100 µM
same,TGI,MDA-MB-231 breast,> 100 µM
same,TGI,PC-3 prostate,> 100 µM
same,TGI,UO-31 renal,> 100 µM
same,TGI,LOX IMVI melanoma,> 100 µM
same,TGI,MDA-MB-435,> 100 µM
same,TGI,OVCAR-4 ovarian,> 100 µM
same,TGI,OVCAR-8 ovarian,> 100 µM
same,TGI,U251 CNS,> 100 µM
same,TGI,OVCAR-3 ovarian,> 100 µM
same,TGI,NCI-H460 lung,> 100 µM
same,TGI,NCI-H23 lung,> 100 µM
same,TGI,786-0 renal,> 100 µM
same,TGI,K-562 leukemia,> 100 µM
same,TGI,SK-OV-3 ovarian,> 100 µM
same,TGI,SK-MEL-2 melanoma,> 100 µM
same,TGI,HCT-116 colon,> 100 µM
same,TGI,HS 578T breast,> 100 µM
same,TGI,T-47D breast,> 100 µM
same,TGI,A498 renal,> 100 µM
same,TGI,SN12C renal,> 100 µM
same,TGI,SF-539 CNS,> 100 µM
same,TGI,CAKI-1 renal,> 100 µM
same,TGI,HCT-15 colon,> 100 µM
same,TGI,NCI-H522 lung,> 100 µM
same,TGI,HT29 colon,> 100 µM
same,TGI,SNB-75 CNS,> 100 µM
same,TGI,SNB-19 CNS,75.1 µM
same,TGI,NCI-H226 lung,> 100 µM
same,TGI,SW-620 colon,> 100 µM
same,TGI,ACHN renal,> 100 µM
same,TGI,TK-10 renal,> 100 µM
same,TGI,SF-268 CNS,> 100 µM
same,TGI,HOP-62 NSCLC,> 100 µM
same,TGI,OVCAR-5 ovarian,> 100 µM
same,TGI,IGROV1 ovarian,> 100 µM
same,TGI,NCI/ADR-RES ovarian,> 100 µM
same,TGI,KM12 colon,> 100 µM
same,TGI,SR leukemia,> 100 µM
same,TGI,MOLT-4 leukemia,> 100 µM
same,TGI,SK-MEL-28 melanoma,> 100 µM
same,TGI,EKVX NSCLC,> 100 µM
same,TGI,HOP-92 NSCLC,> 100 µM
same,TGI,SF-295 CNS,> 100 µM
same,TGI,M14 melanoma,> 100 µM
same,TGI,HCC-2998 colon,> 100 µM
same,TGI,SK-MEL-5 melanoma,> 100 µM
CCCCCCCCCCCC[n+]1c(C)cc(N)c2ccccc21,GI50,UACC-257 melanoma,0.249 µM
same,TGI,UACC-257 melanoma,0.915 µM
same,GI50,DU-145 prostate,0.67 µM
same,TGI,DU-145 prostate,1.97 µM
same,GI50,OVCAR-4 ovarian,0.327 µM
same,TGI,OVCAR-4 ovarian,1.6 µM
same,GI50,SK-OV-3 ovarian,1.13 µM
same,TGI,SK-OV-3 ovarian,2.36 µM
same,GI50,SK-MEL-2 melanoma,1.27 µM
same,TGI,SK-MEL-2 melanoma,2.72 µM
same,GI50,OVCAR-5 ovarian,1.57 µM
same,TGI,OVCAR-5 ovarian,3.28 µM
same,GI50,NCI/ADR-RES ovarian,3.18 µM
same,TGI,NCI/ADR-RES ovarian,> 100 µM
same,GI50,SK-MEL-28 melanoma,1.18 µM
same,TGI,SK-MEL-28 melanoma,2.47 µM
same,GI50,HOP-92 NSCLC,0.167 µM
same,TGI,HOP-92 NSCLC,1.19 µM
same,GI50,SK-MEL-5 melanoma,0.364 µM
same,TGI,SK-MEL-5 melanoma,1.4 µM

# Source: PubChem BioAssay (NCI)
